In US11479784B2, “Modulation of seed vigor” (Syngenta Participations AG, priority 2012, dated 2022):

Tests used:
[1] = system: seeds of A12; test: Sensitivity to low temperatures during germination on paper, pretreatment in GA3 solution; type: in vivo, Brassica oleracea; details: pretreatment 10 d 10 C. in the light in 1 mM GA3, then non-germinated seeds 5 days at 20° C. in the light
Description: (§1) Two replicates of 50 seeds per treatment were incubated at 5° C. or 10° C. in the light as described before for a germination test on paper. Incubation was in water or in a 1 mM solution of GA3. After 10 days seeds that had germinated were removed. The boxes with the remaining non-germinated seeds were then placed at 20° C. in the light. After a further 5 days the number of germinated seeds was counted. As a comparison seeds of both A12 and SL101 were germinated at 20° C. in the light without a pretreatment. Germination percentage of these seeds was counted after 10 days.

[2] = system: seeds of SL101; test: as above; type: in vivo, Brassica oleracea
Description: as §1

Measured: Percentage of germination of seeds

C=C1C[C@]23C[C@@]1(O)CC[C@H]2[C@@]12C=C[C@H](O)[C@@](C)(C(=O)O1)[C@H]2[C@@H]3C(=O)O [GA3]
100%: [1] | [2]; pretreatment 10 d 5 C. in the light in 1 mM GA3, then non-germinated seeds 5 days at 20° C. in the light | [2]; pretreatment 10 d 10 C. in the light in 1 mM GA3, then non-germinated seeds 5 days at 20° C. in the light
